Consider 3 compounds from paper PMC5599584, “Kinetic adaptation of human Myo19 for active mitochondrial transport to growing filopodia tips” (Scientific Reports, 2017).

Assay [1] deals with T1, Myo19-3IQ (Homo sapiens, UniProt Q96H55).
T1 construct: with Calmodulin
The class given is biochemical. The following applies: no actin; 250 µM ATP (initial).

The target of assay [2] is T2, Acto·Myo19-3IQ (Homo sapiens, UniProt Q96H55). Description: biochemical.
The target in assay [3] is T2, Acto·Myo19-3IQ. The assay is described as follows: stopped-flow mant FRET, association kinetics. The class given is binding. Also on record: with Calmodulin; Actin, alpha skeletal muscle (rabbit or chicken skeletal muscle F-actin). The settings on record: KMg50 buffer pH 7.3, 25 °C; bound to F-actin; labelled compound.
In assay [4] the target is T1, Myo19-3IQ. Description: stopped-flow mant FRET / single turnover. The class given is binding. The following applies: read-out: K 1T.
Assay [5] concerns the target F-actin (actin filaments from rabbit or chicken skeletal muscle) (rabbit or chicken) (UniProt P68135).

T2 sequence (Q96H55 whole entry, looked up): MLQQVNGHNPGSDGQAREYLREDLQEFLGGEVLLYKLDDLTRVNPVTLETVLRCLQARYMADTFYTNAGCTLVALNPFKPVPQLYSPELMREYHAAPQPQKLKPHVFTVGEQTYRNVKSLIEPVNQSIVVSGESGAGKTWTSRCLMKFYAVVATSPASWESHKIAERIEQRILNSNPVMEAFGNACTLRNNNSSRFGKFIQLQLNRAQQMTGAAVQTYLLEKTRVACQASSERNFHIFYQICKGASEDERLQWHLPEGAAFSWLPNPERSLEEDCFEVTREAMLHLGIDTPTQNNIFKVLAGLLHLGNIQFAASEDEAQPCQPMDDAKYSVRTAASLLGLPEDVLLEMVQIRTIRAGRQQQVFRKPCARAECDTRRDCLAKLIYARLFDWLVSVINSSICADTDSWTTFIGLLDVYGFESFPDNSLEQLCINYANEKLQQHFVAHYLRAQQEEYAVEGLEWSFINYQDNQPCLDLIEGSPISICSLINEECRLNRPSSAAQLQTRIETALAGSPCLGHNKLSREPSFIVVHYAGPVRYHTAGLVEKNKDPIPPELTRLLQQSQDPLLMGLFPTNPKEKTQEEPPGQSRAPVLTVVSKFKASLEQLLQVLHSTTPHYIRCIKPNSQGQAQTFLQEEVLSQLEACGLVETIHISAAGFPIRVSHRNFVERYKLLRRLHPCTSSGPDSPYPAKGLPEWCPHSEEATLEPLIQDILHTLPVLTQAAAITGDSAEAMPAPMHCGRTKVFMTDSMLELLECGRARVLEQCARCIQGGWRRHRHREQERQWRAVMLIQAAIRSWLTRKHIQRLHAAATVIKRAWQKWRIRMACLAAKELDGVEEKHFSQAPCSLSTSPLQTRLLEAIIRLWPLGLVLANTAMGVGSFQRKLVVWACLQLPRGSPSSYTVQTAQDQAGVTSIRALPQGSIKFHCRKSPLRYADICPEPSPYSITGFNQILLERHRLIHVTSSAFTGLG
T1 sequence (Q96H55 whole entry, looked up): as above

For the compound `Nc1ncnc2c1ncn2[C@@H]1O[C@H](COP(=O)(O)OP(=O)(O)OP(=O)(O)O)[C@@H](O)[C@H]1O` [ATP], the “quenched-flow Pi burst; NADH-coupled ATPase” value on Myo19-3IQ [1] is “Myo19-3IQ (in the absence of actin) mixed with ATP yielded a Pi burst amplitude”. In addition, the Kd on Acto·Myo19-3IQ [2] was 476 ± 116 µM.
On to `CNc1ccccc1C(=O)O[C@H]1C[C@H](n2cnc3c(N)ncnc32)O[C@@H]1COP(=O)(O)OP(=O)(O)OP(=O)(O)O` [mT], for which the “stopped-flow mant FRET, association kinetics” value at Acto·Myo19-3IQ [3] is “mT bound similarly to Myo19-3IQ or Acto·Myo19-3IQ”. The Kd at Myo19-3IQ [4] was around 0.04 µM.
Consider “Myo19-3IQ (human Myo19 motor domain with three IQ light chain-binding motifs, with its associated calmodulin light chain) (from UniProt P0DP23 1-149) (complex)”, for which the K ATPase: actin concentration at the half maximal steady-state ATPase activity (NADH-coupled assay, 1-100 µM F-actin) in assay [5] turned out to be 11.6 µM.
